Measured values taken from paper PMC7336998, “Discovery of secondary sulphonamides as IDO1 inhibitors with potent antitumour effects in vivo” (Journal of Enzyme Inhibition and Medicinal Chemistry, 2020).
Read-outs that look alike come from different tables or passages of the source.

Columns and labels:
CT26 colon carcinoma [1] = test: CT26 colon carcinoma xenograft in immunocompetent BALB/c mice (tumour growth, H&E, IHC, TUNEL, spleen FACS); type: in vivo; settings: CT26 tumour tissue, BALB/c mice, 25 mg/kg i.p
Protocol: BALB/c mice (6–8 weeks old, 18–22 g) were supplied by Model Animal Research Centre of Nanjing University (Nanjing, China). Mice were maintained under standard specific-pathogen-free (SPF) conditions (21 ± 2 °C and 12-h light: dark cycle). Animal welfare and experimental procedures were carried out strictly in accordance with the Guide for the Care and Use of Laboratory Animals (The Ministry of Science and Technology of China, 2006) and the related ethical regulations of our university. All efforts were made to minimise animals’ suffering and to reduce the number of animals used. Mouse colon cancer cells (CT26) and melanoma cells (B16F1) were cultured and collected by centrifugation (1000 rpm, 5 min) and washed twice with ice-cold PBS. Then cells were diluted to 1 × 10^7/ml and 1 × 10^6 CT26/B16F1 cells (in 0.1 ml PBS) were injected subcutaneously into the right flanks of mice. All mice formed tumours three days after injection. Then mice were randomly distributed into five groups (n = 10/8) according to tumour volumes. 5d ([…], 12.5 mg/kg) were administered (i.g) to each group respectively every day. 5-FU (25 mg/kg) and Cis-platinum (1 mg/kg) were administered (i.p) every three days. Tumour length and tumour width were measured with a Vernier calliper every three days. Tumour volumes were measured and calculated using the equation volume = a × b^2/2, where “a” is the maximal […] and “b” is maximal orthogonal width. After the administration were completed, mice were weighed, euthanized, and tumours were removed and the weight were taken.
(§1) For immunohistochemistry staining, the sections were deparaffinized, rehydrated, and washed in 1% PBS-Tween 20, and then treated with 2% hydrogen peroxide, blocked with 3% goat serum (Life Technology, 16210–064) and incubated for 2 h at room temperature with specific primary antibodies. Then the slides were incubated with streptavidin-HRP (Shanghai Gene Company, GK500705) for 40 min, then stained with DAB (Shanghai Gene Company, GK500705) substrate and counter-stained with haematoxylin. Images were acquired by microscopy (Olympus IX51).
Given that it was the most prominent inhibitor in vitro, we chose compound 5d for further pharmacodynamic evaluation in vivo. Bowel cancer is the third leading cause of cancer in the world, thus we first evaluated the efficacy of compound 5d on the growth of murine CT26 colon carcinoma xenograft model in immunocompetent BALB/c mice. Fluorouracil (5-FU) is one of the most commonly used drugs to different cancers including bowel cancer, and was used as the positive control. The CT26 tumour-bearing mice were treated with 5d (3.125, 6.25, 12.5 mg/kg, i.g, every day) or 5-FU (25 mg/kg, i.p, […]). Tumour volumes were measured every two days for 14 days.
Figure 7. Compound 5d suppressed colon cancer growth in immunocompetent mice. 1 × 10^6 CT26 cells were transplanted subcutaneously into the armpit of the BALB/c mice. Three days after transplantation, mice were randomly allocated to vehicle control or treatment groups (n = 10). Drugs were administered on days 1–14. Tumour volume (A) and mice body weight (B) were recorded. After sacrifice, solid tumours were separated and weighed (C, D). Data represent mean ± SEM, n = 10, *p < 0.05, **p < 0.01 vs vehicle.
In order to further observe morphological changes in tumour tissues after administration of compound 5d, the tumour tissue sections obtained from the BALB/c mice bearing CT26 colorectal tumours were stained with haematoxylin-eosin (H&E) to highlight different tissue structures, such as the nucleus and cytoplasm.
Then, to understand the mechanism of tumour cell death, we detected the level of proliferating cell nuclear antigen (PCNA) protein and tumour cell apoptosis by immunohistochemistry (IHC) and terminal deoxynucleotidyl transferase dUTP nick end labelling (TUNEL) experiments, respectively. […]

CT26 colon carcinoma [2] = test: CT26 colon carcinoma xenograft in immunodeficient BALB/c nude mice; type: in vivo, mouse; settings: BALB/c nude mice, 25 mg/kg i.p, vs vehicle
Protocol: Eight-week-old male BALB/c nude mice, weighing 18–22 g, were supplied by Model Animal Research Centre of Nanjing University (Nanjing, China). 1 × 10^7/ml and 1 × 10^6 CT26 cells (in 0.1 ml PBS) were injected subcutaneously into the right flanks of mice. After CT26 xenograft BALB/c nude mouse model was established, all mice were randomly divided into three groups (n = 8). 5d (12.5 mg/kg) were administered (i.g) every day and 5-FU (25 mg/kg) awere administered (i.p) every three days. The following experimental procedures were similar to the described above.
as §1
Then, in order to clarify whether the in vivo antitumour efficacy of compound 5d was related to the mouse immune system, we repeated the above experiment in immunodeficient nude mice. Briefly, BALB/c nude mice bearing established CT26 colon carcinoma xenograft were treated with compound 5d and 5-FU for 10 days.
Figure 8. […] 1 × 10^6 CT26 cells were transplanted subcutaneously into the armpit of immunodeficient BALB/c nude mice. Three days after transplantation, mice were randomly allocated to vehicle control or treatment groups (n = 8). Drugs were administered on days 1–9. (A) Tumour volume and mouse body weight (B) were recorded. After sacrifice, solid tumours were separated and weighed (C, D). Data represent mean ± SEM, n = 8, *p < 0.05, **p < 0.01 vs vehicle.
To verify the above conclusions, we further performed H&E and IHC staining on the nude mouse CT26 tumour tissues. […] These findings further supported the above conclusions.

IDO1 [3] = biological target: T1, IDO1 (Homo sapiens, UniProt P14902); test: HeLa cell-based IDO1/kynurenine assay; settings: for IC50: HeLa cells, IFN-γ induced IDO1, kynurenine readout; for inhibition at 30 µM: percentage inhibition at 30 μM, IFN-γ-treated HeLa cells, kynurenine in media; for potency increase as compared with the hit BS-1: ratio of HeLa IC50 values
T1 construct: a human cervical cancer cell line HeLa that endogenously expresses IDO1 upon IFN-γ treatment; endogenous in cells; host or cells: HeLa cells treated with human IFN-γ
Protocol: (§2) The main bioassays performed in the study, including HeLa cell-based IDO1/kynurenine assay, Western blot analysis, T cell proliferation and Treg cell differentiation experiments, were carried out as described previously.
It is well known that IDO1 is broadly expressed in human cancers and is induced by pro-inflammatory cytokines, such as interferon gamma (IFN-γ) and tumour necrosis factor alpha (TNF-α)[41]. Here we utilised a human cervical cancer cell line HeLa that endogenously expresses IDO1 upon IFN-γ treatment to evaluate the IDO1 inhibitory activity of the synthesised compounds by measuring kynurenine secreted into the media. […] Thus, we also employed this cellular assay to detect false positive IDO1 inhibitors and cytotoxic compounds by measuring HeLa cell viability. Clinical candidate navoximod was used as an assay control.

HeLa cells = test: HeLa cell viability by MTT at the end of the IDO1/kynurenine assay; type: cell-based, human; settings: under the experimental conditions of the IDO1 assay
Text: It is well known that IDO1 is broadly expressed in human cancers and is induced by pro-inflammatory cytokines, such as interferon gamma (IFN-γ) and tumour necrosis factor alpha (TNF-α)[41]. Here we utilised a human cervical cancer cell line HeLa that endogenously expresses IDO1 upon IFN-γ treatment to evaluate the IDO1 inhibitory activity of the synthesised compounds by measuring kynurenine secreted into the media. This cell-based assay, as a rapid and simple method for determination IDO1/kynurenine, is closely related to the potency of the enzyme assay and has been widely used to identify various IDO1 inhibitors[19]^,[23]^,[29]^,[42]. In addition, cytotoxic compounds can reduce cell viability, which will decrease the IDO1 levels and then lower the conversion of tryptophan to kynurenine. Thus, we also employed this cellular assay to detect false positive IDO1 inhibitors and cytotoxic compounds by measuring HeLa cell viability. Clinical candidate navoximod was used as an assay control.
Furthermore, the viability of HeLa cells was evaluated by the MTT method at the end of the assay.

IDO1 protein expression = test: Western blot of IDO1 protein expression in IFN-γ-treated HeLa cells; type: cell-based, human; settings: HeLa cells, IFN-γ 100 ng/mL 24 h, then compounds at their IC50 concentrations for 24 h
Protocol: as §2
To exclude the possibility that these secondary sulphonamides inhibit IDO1 activity by down-regulating IDO1 expression, we utilised Western blot to measure the expression of IDO1 protein in HeLa cells treated with different compounds.
Figure 3. […] (B) The greyscale scanning statistical results of A. (C) HeLa cells were incubated with compound 5d (3, 10, 30 μM) for 24 h. (D) The greyscale scanning statistical results of C. (E) HeLa cells were incubated with compound 5d (3, 10, 30 μM) for 48 h. (F) The greyscale scanning statistical results of E. Data are presented as means ± SEM (n = 3).

[4] = system: naïve CD4+ T cells co-cultured with B16F1 cells; test: FoxP3+ Treg cell differentiation in B16F1-T cell co-culture (flow cytometry); type: cell-based, mouse; settings: for FoxP3+ Treg cell differentiation (in words): Con A, 48 h
Protocol: as §2
Besides causing local tryptophan depletion, high IDO1 expression can also accumulate metabolites of kynurenine pathway. The elevated metabolites can not only induce effector T cell death directly through their cytotoxicity, but also promote the differentiation of naïve CD4^+ T cells into CD4^+ FoxP3^+ Treg cells by activating the AHR pathway. As a highly immunosuppressive subset of CD4^+ T cells, FoxP3^+ Treg cells are critical to the maintenance of immune homeostasis and are involved in tumour immune escape, thereby contributing to tumour development and progression. Therefore, we also utilised co-culture of B16F1 cells with naïve CD4^+ T cells to test whether the synthesised compounds could suppress IDO1 mediated Treg cell differentiation.
Figure 5. Compounds 5d and 8 g inhibited Treg cell differentiation in the cell co-culture system. (A) After co-cultured with B16F1 cells, T cells were collected. Surface staining was performed with CD4^+ FTTC and CD25^+ PE for 30 min at 4 °C. The cells were fixed and permeabilized with fixation buffer and permeabilization wash buffer. The intracellular staining was performed with FoxP3^+ APC for 20 min. The cells were then analysed by flow cytometry analysis. (B) Statistical analysis of result A. Data are represented as ± SEM (n = 3). *p < 0.05, **p < 0.01 vs T + B16F1. TEXT PRINTED IN THE PICTURE: (A) Navoximod: 8.1% (T + B16F1; 1.5 μM) | (A) 8g: 7.8% (T + B16F1; 18 μM) | (A) 5d: 2.1% (T + B16F1; 18 μM)

[5] = system: naïve CD4+ T cells co-cultured with B16F1 melanoma cells; test: T cell proliferation in B16F1-T cell co-culture (MTT); type: cell-based, mouse
Protocol: as §2
T lymphocytes are exceedingly sensitive to low tryptophan levels. Overactivation of the kynurenine pathway by high IDO1 expression leads to local tryptophan depletion, which can suppress T cell proliferation by activating the GCN2 kinase pathway and eventually result in T cell anergy. Here, to determine whether secondary sulphonamides could rescue IDO1-mediated blockade of T cell proliferation, we used a co-culture of IDO1-expressing B16F1 melanoma cells with naïve CD4^+ T cells to mimic the tumour microenvironment. Given that melanoma is a highly immunogenic tumour and IDO1 constitutively expresses in melanoma cells, B16F1 murine melanoma cell lines that express IDO1 were then used to co-culture with T cells. Naïve CD4^+ T cells were isolated from spleens of C57BL/6 mice.
Figure 4. Compounds 5d and 8 g could promote the proliferation of T cells. Based on the B16F1-T cell co-culture system, use MTT assay to test T cells proliferation. The Navoximod and compounds were added to the system at the concentration of 1.5 and 18 μM. Data represent mean ± SEM (n = 3).

IDO1 [6] = biological target: T1, IDO1; design: method as in earlier work; settings: HeLa cell assay; earlier series of N-acetyl secondary sulphonamides; cited from earlier work

T1 sequence (P14902 whole entry): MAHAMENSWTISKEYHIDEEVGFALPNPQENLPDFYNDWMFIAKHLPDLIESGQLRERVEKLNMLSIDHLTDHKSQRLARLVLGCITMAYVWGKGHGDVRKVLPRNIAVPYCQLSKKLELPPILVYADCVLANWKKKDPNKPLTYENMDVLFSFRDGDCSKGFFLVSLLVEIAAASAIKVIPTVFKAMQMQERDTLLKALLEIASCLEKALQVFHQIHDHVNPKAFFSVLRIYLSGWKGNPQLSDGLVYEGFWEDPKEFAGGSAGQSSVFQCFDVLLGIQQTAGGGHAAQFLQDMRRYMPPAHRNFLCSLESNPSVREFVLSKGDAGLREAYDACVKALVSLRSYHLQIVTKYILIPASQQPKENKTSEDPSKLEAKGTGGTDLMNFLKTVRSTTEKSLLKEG

| Structure (SMILES) | melting point [°C] | IC50 (IDO1 [3]) [µM] | inhibition at 30 µM (IDO1 [3]) [%] | potency increase as compared with the hit BS-1 (IDO1 [3]) [fold] | HeLa cell viability (HeLa cells) | expression of IDO1 protein (IDO1 protein expression) | also measured |
| --- | --- | --- | --- | --- | --- | --- | --- |
| O=c1[nH]cc(F)c(=O)[nH]1 [5-FU, Fluorouracil, reference compound] |  |  |  |  |  |  | expression of PCNA protein (IHC) (CT26 colon carcinoma [1]): significantly reduced; number of tumour cells (H&E staining) (CT26 colon carcinoma [1]): significantly reduced; tumour cell apoptosis (TUNEL) (CT26 colon carcinoma [1]): apoptosis increased; tumour growth (CT26 colon carcinoma [2]): significantly suppressed tumour growth |
| C=CC(=O)Nc1ccc(S(=O)(=O)NCc2cccc(Br)c2)cc1 [5l, N-(4-(N-(3-Bromobenzyl)sulfamoyl)phenyl)acrylamide] | 156 to 158 | 6.64 | 89.1 | 7.4 | without affecting the cell viability | did not influence IDO1 expression |  |
| C=CC(=O)Nc1ccc(S(=O)(=O)Nc2cccc(Cl)c2)cc1 [8f, N-(4-(N-(3-Chlorophenyl)sulfamoyl)phenyl)acrylamide] | 217 to 219 | 9.48 | 89.5 |  |  | did not influence IDO1 expression |  |
| C=CC(=O)Nc1ccc(S(=O)(=O)Nc2ccc(F)c(Cl)c2)cc1 [8g, N-(4-(N-(3-Chloro-4-fluorophenyl)sulfamoyl)phenyl)acrylamide] |  | 3.76 | 93.2 | 13.1 | without affecting the cell viability | did not influence IDO1 expression | FoxP3+ Treg cells (flow cytometry) ([4]; 18 μM): 7.8%; FoxP3+ Treg cell differentiation (in words) ([4]; 18 μM): significantly reduce FoxP3^+ Treg cell differentiation; T cell proliferation ([5]; 18 μM): significant augmentation on T cell activity |
| COc1ccc(CNS(=O)(=O)c2ccc(NC(C)=O)cc2)cc1 [N-(4-(N-(4-methoxybenzyl)sulfamoyl)phenyl)acetamide, reference compound] |  |  |  | 8.4 |  |  | IC50 (IDO1 [6]): 5.88 µM |
| O[C@H](C[C@H]1c2c(F)cccc2-c2cncn21)[C@H]1CC[C@H](O)CC1 [Navoximod, (1R,4r)-4-((R)-2-((S)-6-fluoro-5H-imidazo[5,1-a]isoindol-5-yl)-1-hydroxyethyl)cyclohexan-1-ol, reference compound] |  |  |  |  |  |  | FoxP3+ Treg cells (flow cytometry) ([4]; 1.5 μM): 8.1%; FoxP3+ Treg cell differentiation (in words) ([4]; 1.5 μM): significantly reduce FoxP3^+ Treg cell differentiation; T cell proliferation ([5]; 1.5 μM): significant augmentation on T cell activity |
